Experimental data reported in patent US8344181B2, “N-2 adamantanyl-2-phenoxy-acetamide derivatives as 11-beta hydroxysteroid dehydrogenase inhibitors” (Janssen Pharmaceutica N.V., priority 2004, dated 2013).

Experiments:
11β-HSD1 = molecular target: T1, 11β-HSD1 (Mus musculus, UniProt P50172); assay: Cellular assay of 11β-HSD1 activity in differentiated 3T3-L1 cells; assay type: cell-based; conditions: 4 hour pre-incubation, 10^-5M to 10^-10M, read-out: HSD1 cellular 3T3-L1 Score
T1 construct: endogenous in cells; host or cells: 3T3-L1 (ATCC-CL-173), differentiated into adipocytes
T1 sequence (P50172 whole entry): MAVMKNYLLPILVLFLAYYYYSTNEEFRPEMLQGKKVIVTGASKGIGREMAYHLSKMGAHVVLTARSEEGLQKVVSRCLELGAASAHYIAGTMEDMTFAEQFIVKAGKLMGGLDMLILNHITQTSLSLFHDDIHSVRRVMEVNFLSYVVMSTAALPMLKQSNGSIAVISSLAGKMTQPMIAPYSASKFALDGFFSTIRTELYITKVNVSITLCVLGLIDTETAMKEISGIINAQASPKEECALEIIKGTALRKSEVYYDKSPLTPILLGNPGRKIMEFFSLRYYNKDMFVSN
Procedure: The effects on 11β-HSD1 activity was measured in differentiated 3T3-L1 cells and rat hepatocytes.
Mouse fibroblast 3T3-L1 cells (ATCC-CL-173) were seeded at a density of 16500 cells/ml in 12 well plates and grown for 7 days in DMEM medium (supplemented with 10% heat inactivated foetal calf serum, 2 mM glutamine and 25 mg gentamycin) at 37° C. in a humidified 5% CO2 atmosphere. Medium was refreshed twice a week. Fibroblasts were differentiated into adipocytes at 37° C. in a 5% CO2 humidified atmosphere in growth medium containing 2 μg/ml insulin, 55 μg/ml IBMX and 39.2 μg/ml dexamethasone.
Primary hepatocytes from male rats were seeded on normal Falcon 12 well plates at a density of 250000 cells/well and incubated for 16 hours at 37° C. in a 5% CO2 humidified atmosphere in DMEM-HAM's F12 medium containing 5% Nu-serum, 100 U/ml penicillin, 100 μg/ml streptomycin, 0.25 μg/ml amphotericin B, 50 μg/ml gentamycin sulfate, 5 μg/ml insulin and 392 ng/ml dexamethasone. Following a 4 hour pre-incubation with test compound, 0.5 μCi ^3H-cortisone or dehydrocorticosterone, was added to the 3T3-L1 cultures. One hour later, the medium was extracted on Extrelut^3-columns with 15 ml diethyl ether and the extract was analysed by HPLC as described above. The effects of JNJ-compounds on rat hepatocyte HSD1 activity was measured after an incubation period of 90 minutes with 0.5 μCi^3H-dehydrocorticosterone. Corticosterone formation was analysed by HPLC.
(§1) As for the enzymatic assays, the compounds to be tested were taken from a stock solution and tested at a final concentration ranging from 10^−5M to 10^−10M. From the thus obtained dose response curves, the pIC50 value was calculated and scored as follows; Score 1=pIC50 value<5, Score 2=pIC50 value in the range of 5 to 6, Score 3=pIC50 value>6. (in this table NT stands for Not Tested).

11β-HSD2 = molecular target: T2, 11β-HSD2 (Homo sapiens, UniProt P80365); assay: Cellular assay of 11β-HSD2 activity in HepG2 cells; assay type: cell-based; conditions: 4 hour pre-incubation, 10^-5M to 10^-10M, read-out: HSD2 cellular HepG2 Score
T2 construct: endogenous in cells; host or cells: HepG2 (ATCC HB-8065)
T2 sequence (P80365 1-405): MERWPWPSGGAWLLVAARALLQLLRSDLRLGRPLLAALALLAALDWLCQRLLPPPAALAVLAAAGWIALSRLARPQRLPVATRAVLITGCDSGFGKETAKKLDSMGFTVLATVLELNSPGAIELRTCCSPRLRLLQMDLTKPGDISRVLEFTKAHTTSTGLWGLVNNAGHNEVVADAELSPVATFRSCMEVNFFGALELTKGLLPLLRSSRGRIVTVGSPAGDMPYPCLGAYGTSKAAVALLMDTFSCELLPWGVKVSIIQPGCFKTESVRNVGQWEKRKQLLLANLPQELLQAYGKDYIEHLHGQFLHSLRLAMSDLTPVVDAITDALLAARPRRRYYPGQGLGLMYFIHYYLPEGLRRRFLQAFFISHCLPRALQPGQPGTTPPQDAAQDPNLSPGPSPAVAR
Procedure: The effects on 11β-HSD2 activity was studied in HepG2 and LCC-PK1-cells HepG2-cells (ATCC HB-8065) were seeded in 12 well plates at a density of 100,000 cells/ml and grown at 37° C. in a humidified 5% CO2 atmosphere in MEM-Rega-3 medium supplemented with 10% heat inactivated foetal calf serum, 2 mM L-glutamine and sodium bicarbonate). Medium was refreshed twice a week.
Following a 4 hour pre-incubation with test compound, 0.5 μCi ^3H-cortisol or corticosterone, was added to the cultures. One hour later, the medium was extracted on Extrelut^3-columns with 15 ml diethyl ether and the extract was analysed by HPLC as described above.
as §1

SMILES | IC50 (11β-HSD1) [nM] | IC50 (11β-HSD2) [nM]
Cc1ccccc1NC(C)(C)C(=O)N[C@H]1[C@@H]2CC3C[C@H]1C[C@](F)(C3)C2 [Compound 35] | < 1000 | 1000 to 10000
COc1cccc(OC(C)(C)C(=O)N[C@H]2[C@@H]3CC4C[C@H]2C[C@](O)(C4)C3)c1 [Compound 14] | < 1000 | < 1000
Cc1c(C(=O)N[C@H]2[C@@H]3CC4C[C@H]2C[C@](O)(C4)C3)oc2ccccc12 [Compound 7] | < 1000 | > 10000
CC(C)(Oc1cccc(C(F)(F)F)c1)C(=O)N[C@H]1[C@@H]2CC3C[C@H]1C[C@](N)(C3)C2 [Compound 81] | < 1000 | > 10000
CC(C)(Nc1cccc(C(F)(F)F)c1)C(=O)N[C@H]1[C@@H]2CC3C[C@H]1C[C@](F)(C3)C2 [Compound 61] | < 1000 | > 10000
Cc1c(C)c2c(c(C)c1O)CCC(C)(C(=O)N[C@H]1[C@@H]3CC4C[C@H]1C[C@](O)(C4)C3)O2 (stereo partly drawn) [Compound 28] | < 1000 | < 1000
COc1ccc(NC(C)(C)C(=O)N[C@H]2[C@@H]3CC4C[C@H]2C[C@](NC(C)=O)(C4)C3)cc1 [Compound 76] | < 1000 | > 10000
Cc1cc(Cl)ccc1OC(C)(C)C(=O)N[C@H]1[C@@H]2CC3C[C@H]1C[C@](NS(=O)(=O)N(C)C)(C3)C2 [Compound 30] | < 1000 | 1000 to 10000
Cc1cc(Cl)ccc1OC(C)(C)C(=O)N[C@H]1[C@@H]2CC3C[C@H]1C[C@](NS(C)(=O)=O)(C3)C2 [Compound 33] | < 1000 | 1000 to 10000
Cc1cc(Cl)ccc1OC(C)(C)C(=O)N[C@H]1[C@@H]2CC3C[C@H]1C[C@](N)(C3)C2 [Compound 32] | < 1000 | > 10000
CC(C)(Nc1cccc(C(F)(F)F)c1)C(=O)N[C@H]1[C@@H]2CC3C[C@H]1C[C@](NC(=O)CCl)(C3)C2 [Compound 80] | < 1000 | 1000 to 10000
Cc1cc(Cl)ccc1OC(C)(C)C(=O)N[C@H]1[C@@H]2CC3C[C@H]1C[C@](NC(=O)NC(C)(C)C)(C3)C2 [Compound 71] | 1000 to 10000 | –
Cc1cc(Cl)ccc1OC(C)(C)C(=O)N[C@H]1[C@@H]2CC3C[C@H]1C[C@](NC(=O)CN(C)C)(C3)C2 [Compound 72] | < 1000 | 1000 to 10000
COc1cccc(NC(C)(C)C(=O)N[C@H]2[C@@H]3CC4C[C@H]2C[C@](F)(C4)C3)c1 [Compound 56] | < 1000 | > 10000
CC(=O)N[C@@]12CC3C[C@H](C1)[C@H](NC(=O)C(C)(C)Nc1cccc(C(F)(F)F)c1)[C@@H](C3)C2 [Compound 65] | < 1000 | > 10000
CC(C)(Oc1cccc(Cl)c1)C(=O)N[C@H]1[C@@H]2CC3C[C@H]1C[C@](O)(C3)C2 [Compound 43] | < 1000 | < 1000
Cc1cc(Cl)ccc1OC(C)(C)C(=O)N[C@H]1[C@@H]2CC3C[C@H]1C[C@](N1CCC(C)C1=O)(C3)C2 (stereo partly drawn) [Compound 91] | < 1000 | < 1000
Cc1cc(C)cc(OC(C)(C)C(=O)NC2C3CC4CC(C3)CC2C4)c1 (stereo not drawn) [Compound 2] | < 1000 | > 10000
CCS(=O)(=O)N[C@@]12CC3C[C@H](C1)[C@H](NC(=O)C(C)(C)Oc1cccc(C(F)(F)F)c1)[C@@H](C3)C2 [Compound 87] | < 1000 | 1000 to 10000
Cc1cc(C)cc(OC(C)(C)C(=O)N[C@H]2[C@@H]3CC4C[C@H]2C[C@](O)(C4)C3)c1 [Compound 16] | < 1000 | < 1000
COC(=O)c1ccc(NC(C)(C)C(=O)N[C@H]2[C@@H]3CC4C[C@H]2C[C@](O)(C4)C3)cc1 [Compound 79] | < 1000 | –
CC(C)(Oc1cc(C(F)(F)F)ccc1Cl)C(=O)N[C@H]1[C@@H]2CC3C[C@H]1C[C@](N)(C3)C2 [Compound 101] | < 1000 | –
CC(C)(Oc1ccccc1C(F)(F)F)C(=O)N[C@H]1[C@@H]2CC3C[C@H]1C[C@](N)(C3)C2 [Compound 102] | < 1000 | –
CC(C)(Oc1cccc(C(F)(F)F)c1Cl)C(=O)N[C@H]1[C@@H]2CC3C[C@H]1C[C@](N)(C3)C2 [Compound 100] | < 1000 | –
COC(=O)c1cccc(NC(C)(C)C(=O)N[C@H]2[C@@H]3CC4C[C@H]2C[C@](F)(C4)C3)c1 [Compound 78] | < 1000 | –
CC(C)(Oc1ccccc1Cl)C(=O)N[C@H]1[C@@H]2CC3C[C@H]1C[C@](N)(C3)C2 [Compound 99] | < 1000 | –
Cc1ccccc1OC(C)(C)C(=O)N[C@H]1[C@@H]2CC3C[C@H]1C[C@](N)(C3)C2 [Compound 103] | < 1000 | –
CC(C)(Nc1cccc(C(=O)O)c1)C(=O)N[C@H]1[C@@H]2CC3C[C@H]1C[C@](O)(C3)C2 [Compound 86] | 1000 to 10000 | –
COc1cc(F)ccc1OC(C)(C)C(=O)N[C@H]1[C@@H]2CC3C[C@H]1C[C@](N)(C3)C2 [Compound 105] | < 1000 | –
COC(=O)c1ccc(NC(C)(C)C(=O)NC2[C@@H]3CC4C[C@H]2C[C@](F)(C4)C3)cc1 (stereo partly drawn) [Compound 96] | 1000 to 10000 | –

The next lines start with the values.

IC50 (11β-HSD1) [nM] | IC50 (11β-HSD2) [nM] | SMILES
< 1000 | > 10000 | CC(C)(Nc1ccccc1)C(=O)N[C@H]1[C@@H]2CC3C[C@H]1C[C@](F)(C3)C2 [Compound 68]
< 1000 | 1000 to 10000 | CCOC(=O)N[C@@]12CC3C[C@H](C1)[C@H](NC(=O)C(C)(C)Oc1ccc(Cl)cc1C)[C@@H](C3)C2 [Compound 45]
< 1000 | 1000 to 10000 | O=C(N[C@H]1[C@@H]2CC3C[C@H]1C[C@](O)(C3)C2)C1COc2ccccc2O1 (stereo partly drawn) [Compound 8]
< 1000 | > 10000 | Cc1ccc(S(=O)(=O)N[C@@]23CC4C[C@H](C2)[C@H](NC(=O)C(C)(C)Oc2ccc(Cl)cc2C)[C@@H](C4)C3)cc1 [Compound 77]
< 1000 | 1000 to 10000 | CC(=O)N[C@@]12CC3C[C@H](C1)[C@H](NC(=O)C(C)(C)Nc1cccc(C)c1)[C@@H](C3)C2 [Compound 70]
< 1000 | < 1000 | Cc1ccccc1OC(C)(C)C(=O)N[C@H]1[C@@H]2CC3C[C@H]1C[C@](O)(C3)C2 [Compound 12]
< 1000 | 1000 to 10000 | Cc1ccc(OC(C)(C)C(=O)N[C@H]2[C@@H]3CC4C[C@H]2C[C@](OCc2ccccc2)(C4)C3)cc1 [Compound 52]
< 1000 | < 1000 | CCC(=O)N[C@@]12CC3C[C@H](C1)[C@H](NC(=O)C(C)(C)Oc1ccc(Cl)cc1C)[C@@H](C3)C2 [Compound 63]
< 1000 | > 10000 | O=C(N[C@H]1[C@@H]2CC3C[C@H]1C[C@](O)(C3)C2)c1cc2ccccc2o1 [Compound 23]
< 1000 | 1000 to 10000 | Cc1cc(Cl)ccc1OC(C)(C)C(=O)N[C@H]1[C@@H]2CC3C[C@H]1C[C@](NC(=O)CN(C)CCO)(C3)C2 [Compound 42]
< 1000 | – | CC(C)(Oc1cccc(Br)c1)C(=O)N[C@H]1[C@@H]2CC3C[C@H]1C[C@](NC(=O)OCCCl)(C3)C2 [Compound 98]
< 1000 | > 10000 | COc1ccc(NC(C)(C)C(=O)N[C@H]2[C@@H]3CC4C[C@H]2C[C@](F)(C4)C3)cc1 [Compound 59]
1000 to 10000 | – | CC(C)(Nc1cccc(C(=O)O)c1)C(=O)N[C@H]1[C@@H]2CC3C[C@H]1C[C@](F)(C3)C2 [Compound 82]
> 10000 | – | CC(=O)N[C@@]12CC3C[C@H](C1)C(NC(=O)C(C)(C)Nc1cccc(C(=O)O)c1)[C@@H](C3)C2 (stereo partly drawn) [Compound 97]
< 1000 | – | CC(C)(C(=O)N[C@H]1[C@@H]2CC3C[C@H]1C[C@](O)(C3)C2)[S+]([O-])c1ccc(Cl)cc1 (stereo partly drawn) [Compound 5]
